In ChEMBL document CHEMBL4725233, “Anti-inflammatory principles from Lindera aggregata” (Bioorg Med Chem Lett, 2020):

What was measured:
Neutrophil [1] = test: Antiinflammatory activity in human neutrophils assessed as inhibition of fMLF/cytochalasin B-induced superoxide anion generation at 10 uM preincubated for 5 mins followed by fMLF addition after priming with CB for 3 mins by spectrophotometric analysis relative to control; assay type: functional
Neutrophil [2] = test: Antiinflammatory activity in human neutrophils assessed as inhibition of fMLF/cytochalasin B-induced superoxide anion generation preincubated for 5 mins followed by fMLF addition after priming with CB for 3 mins by spectrophotometric analysis; assay type: functional, cell-based

Structure (SMILES)	inhibition at 10 µM (Neutrophil [1]) [%]	IC50 (Neutrophil [2]) [µM]
COc1cc2c(cc1O)C[C@H]1c3c(cc(OC)c(OC)c3-2)CCN1C	> 50	8.36
C=C1O[C@@H]2[C@@H](OC(C)=O)C3=C(C)C(=O)OC3=C[C@@]2(C)[C@@H]2C[C@H]12	> 50	7.45
O=c1c(-c2ccc(O)cc2)coc2cc(O)cc(O)c12 [GENISTEIN]	–	1.11
COc1cc2c(cc1O)C[C@H]1c3c(cc(OC)c(O)c3-2)CCN1C [ISOBOLDINE]	> 50	5.81
